Holding throughout (assay): relative viability (nuclei count vs DMSO), 5 days (fraction); higher = more cells survive
Compound in the test “Doramapimod + Foretinib”: Cc1ccc(-n2nc(C(C)(C)C)cc2NC(=O)Nc2ccc(OCCN3CCOCC3)c3ccccc23)cc1 [Doramapimod] + COc1cc2c(Oc3ccc(NC(=O)C4(C(=O)Nc5ccc(F)cc5)CC4)cc3F)ccnc2cc1OCCCN1CCOCC1 [Foretinib] (partner 0.25 µM)
A digest of the protocol:
(§1)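 A single step with final 0.05% Triton X-100, 1% formaldehyde and 1 ug/ml Hoechst fixed the cells and stained nuclei 5 days after treatment. Lung cancer cell lines in 1536-well plates had been treated by pin tool the day after seeding with one drug alone or a fixed anchor-drug dose plus five library-drug doses (not always all listed) in √10 steps, and nuclei were counted on 4× images. Relative viability is the ratio of nuclei in treated wells to nuclei in vehicle wells, taken as the median of duplicate plates.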

Compound in the test “IPA-3 + Olaparib”: C1=CC=C2C(=C1)C=CC(=C2SSC3=C(C=CC4=CC=CC=C43)O)O [IPA-3] + O=C(c1cc(Cc2n[nH]c(=O)c3ccccc23)ccc1F)N1CCN(C(=O)C2CC2)CC1 [Olaparib] (partner 8 µM)
A digest of the protocol:
as §1

Compound in the test “RAF265 + Decitabine”: Cn1c(Nc2ccc(C(F)(F)F)cc2)nc2cc(Oc3ccnc(-c4ncc(C(F)(F)F)[nH]4)c3)ccc21 [RAF265] + Nc1ncn([C@H]2C[C@H](O)[C@@H](CO)O2)c(=O)n1 [Decitabine] (partner 2 µM)
Put shortly:
as §1

Compound in test [1]: Cc1ccc(-n2nc(C(C)(C)C)cc2NC(=O)Nc2ccc(OCCN3CCOCC3)c3ccccc23)cc1 [Doramapimod] + CC(=O)c1c(C)c2cnc(Nc3ccc(N4CCNCC4)cn3)nc2n(C2CCCC2)c1=O [Palbociclib] (partner 0.5 µM)
Put shortly: as §1

Data on twelve cell lines can be found in the supplement of paper PMC10307832.

EBC-1: the relative viability stood at 0.117 with Doramapimod + Foretinib (first compound 0.02 µM); 0.102 with Doramapimod + Foretinib (first compound 0.06325 µM); 0.0979 with Doramapimod + Foretinib (first compound 0.2 µM); 0.0935 with Doramapimod + Foretinib (first compound 0.6325 µM); 0.1 in the test with Doramapimod + Foretinib (first compound 2 µM); 0.904 with IPA-3 + Olaparib (first compound 0.2 µM). Also, the relative viability was 0.668 with IPA-3 + Olaparib (first compound 0.6325 µM), 0.715 with IPA-3 + Olaparib (first compound 2 µM), 0.607 with IPA-3 + Olaparib (first compound 6.325 µM) and 0.493 with IPA-3 + Olaparib (first compound 20 µM).

On to HCC-44, for which the relative viability in the test with IPA-3 + Olaparib (first compound 0.2 µM) was 0.961; in the test with IPA-3 + Olaparib (first compound 0.6325 µM), 0.983; with IPA-3 + Olaparib (first compound 2 µM), 1.03; with IPA-3 + Olaparib (first compound 6.325 µM), 1.02; with IPA-3 + Olaparib (first compound 20 µM), 1.02; with RAF265 + Decitabine (first compound 0.01 µM), 0.945. Besides, the relative viability with RAF265 + Decitabine (first compound 0.03162 µM) is 0.951; with RAF265 + Decitabine (first compound 0.1 µM), 0.95; in the test with RAF265 + Decitabine (first compound 0.3162 µM), 0.967; with RAF265 + Decitabine (first compound 1 µM) it was 0.947; in test [1] (first compound 0.02 µM), 0.96; in test [1] (first compound 0.06325 µM), 1. Besides, the results for the relative viability in test [1] (first compound 0.2 µM), in test [1] (first compound 0.6325 µM) and in test [1] (first compound 2 µM) were 0.97, 0.904 and 0.891, respectively.

For IA-LM, the relative viability worked out at 0.933 with Doramapimod + Foretinib (first compound 0.02 µM); 1.04 in the test with Doramapimod + Foretinib (first compound 0.06325 µM); 1.11 with Doramapimod + Foretinib (first compound 0.2 µM); 1.17 in the test with Doramapimod + Foretinib (first compound 0.6325 µM); 0.729 with Doramapimod + Foretinib (first compound 2 µM); 1.22 with IPA-3 + Olaparib (first compound 0.2 µM). Moreover, the relative viability worked out at 0.814 with IPA-3 + Olaparib (first compound 0.6325 µM), 0.906 with IPA-3 + Olaparib (first compound 2 µM), 0.651 with IPA-3 + Olaparib (first compound 6.325 µM) and 0.814 with IPA-3 + Olaparib (first compound 20 µM).

NCI-H522: the relative viability was determined as 0.52 in the test with IPA-3 + Olaparib (first compound 0.2 µM); 0.663 with IPA-3 + Olaparib (first compound 0.6325 µM); 0.699 in the test with IPA-3 + Olaparib (first compound 2 µM); 0.571 in the test with IPA-3 + Olaparib (first compound 6.325 µM); 0.671 with IPA-3 + Olaparib (first compound 20 µM); 0.651 in the test with RAF265 + Decitabine (first compound 0.01 µM). The relative viability worked out at 0.585 with RAF265 + Decitabine (first compound 0.03162 µM); 0.604 with RAF265 + Decitabine (first compound 0.1 µM); 0.729 in the test with RAF265 + Decitabine (first compound 0.3162 µM); 0.617 with RAF265 + Decitabine (first compound 1 µM); 1.02 in test [1] (first compound 0.02 µM); 1.04 in test [1] (first compound 0.06325 µM). Moreover, the figures for the relative viability in test [1] (first compound 0.2 µM), in test [1] (first compound 0.6325 µM) and in test [1] (first compound 2 µM) were 1.03, 0.954 and 0.817, respectively.

For the cell line NCI-H596, the relative viability with Doramapimod + Foretinib (first compound 0.02 µM) amounted to 0.907; with Doramapimod + Foretinib (first compound 0.06325 µM), 0.766; in the test with Doramapimod + Foretinib (first compound 0.2 µM), 1.01; with Doramapimod + Foretinib (first compound 0.6325 µM), 0.782; in the test with Doramapimod + Foretinib (first compound 2 µM), 0.855; in the test with IPA-3 + Olaparib (first compound 0.2 µM), 0.638. Also, the relative viability is 0.708 in the test with IPA-3 + Olaparib (first compound 0.6325 µM); 0.773 with IPA-3 + Olaparib (first compound 2 µM); 0.768 with IPA-3 + Olaparib (first compound 6.325 µM); 0.748 with IPA-3 + Olaparib (first compound 20 µM); 1.06 with RAF265 + Decitabine (first compound 0.01 µM); 0.975 with RAF265 + Decitabine (first compound 0.03162 µM). The figures for the relative viability with RAF265 + Decitabine (first compound 0.1 µM), in the test with RAF265 + Decitabine (first compound 0.3162 µM) and with RAF265 + Decitabine (first compound 1 µM) were 0.913, 1.13 and 0.925, respectively.

For the cell line NCI-H1299, the relative viability with Doramapimod + Foretinib (first compound 0.02 µM) was 1.07; with Doramapimod + Foretinib (first compound 0.06325 µM), 1.09; with Doramapimod + Foretinib (first compound 0.2 µM), 1.15; in the test with Doramapimod + Foretinib (first compound 0.6325 µM), 1.04; with Doramapimod + Foretinib (first compound 2 µM) it was 1.01; in the test with IPA-3 + Olaparib (first compound 0.2 µM), 1.02. The relative viability was determined as 0.953 with IPA-3 + Olaparib (first compound 0.6325 µM), 0.983 with IPA-3 + Olaparib (first compound 2 µM), 0.963 with IPA-3 + Olaparib (first compound 6.325 µM) and 0.983 with IPA-3 + Olaparib (first compound 20 µM).

For the cell line NCI-H1563, the relative viability with Doramapimod + Foretinib (first compound 0.02 µM) was found to be 0.847; in the test with Doramapimod + Foretinib (first compound 0.06325 µM), 1; with Doramapimod + Foretinib (first compound 0.2 µM), 0.962; in the test with Doramapimod + Foretinib (first compound 0.6325 µM) it was 0.966; with Doramapimod + Foretinib (first compound 2 µM), 1.08.

For NCI-H1623, the relative viability was 0.95 in the test with Doramapimod + Foretinib (first compound 0.02 µM); 0.791 with Doramapimod + Foretinib (first compound 0.06325 µM); 0.86 with Doramapimod + Foretinib (first compound 0.2 µM); 0.743 with Doramapimod + Foretinib (first compound 0.6325 µM); 0.746 in the test with Doramapimod + Foretinib (first compound 2 µM).

On to NCI-H1648, for which the relative viability in the test with IPA-3 + Olaparib (first compound 0.2 µM) came to 1.05; in the test with IPA-3 + Olaparib (first compound 0.6325 µM) it was 0.906; with IPA-3 + Olaparib (first compound 2 µM) it was 0.84; with IPA-3 + Olaparib (first compound 6.325 µM) it was 0.739; with IPA-3 + Olaparib (first compound 20 µM), 0.873; with RAF265 + Decitabine (first compound 0.01 µM) it was 0.453. The relative viability stood at 0.557 in the test with RAF265 + Decitabine (first compound 0.03162 µM); 0.518 with RAF265 + Decitabine (first compound 0.1 µM); 0.4 in the test with RAF265 + Decitabine (first compound 0.3162 µM); 0.391 with RAF265 + Decitabine (first compound 1 µM); 0.262 in test [1] (first compound 0.02 µM); 0.293 in test [1] (first compound 0.06325 µM). Moreover, the relative viability is 0.248 in test [1] (first compound 0.2 µM), 0.249 in test [1] (first compound 0.6325 µM) and 0.234 in test [1] (first compound 2 µM).

Turning to NCI-H1703, the relative viability came to 0.297 with Doramapimod + Foretinib (first compound 0.02 µM); 0.316 in the test with Doramapimod + Foretinib (first compound 0.06325 µM); 0.4 in the test with Doramapimod + Foretinib (first compound 0.2 µM); 0.336 with Doramapimod + Foretinib (first compound 0.6325 µM); 0.342 with Doramapimod + Foretinib (first compound 2 µM); 0.807 with IPA-3 + Olaparib (first compound 0.2 µM). Besides, the relative viability turned out to be 0.479 with IPA-3 + Olaparib (first compound 0.6325 µM), 0.38 in the test with IPA-3 + Olaparib (first compound 2 µM), 0.459 with IPA-3 + Olaparib (first compound 6.325 µM) and 0.581 with IPA-3 + Olaparib (first compound 20 µM).

Take NCI-H1792: the relative viability with IPA-3 + Olaparib (first compound 0.2 µM) was 0.506; in the test with IPA-3 + Olaparib (first compound 0.6325 µM), 0.48; with IPA-3 + Olaparib (first compound 6.325 µM) it was 0.395; in the test with IPA-3 + Olaparib (first compound 20 µM), 0.225; with RAF265 + Decitabine (first compound 0.01 µM), 0.462; with RAF265 + Decitabine (first compound 0.03162 µM), 0.506. Besides, the relative viability in the test with RAF265 + Decitabine (first compound 0.1 µM) worked out at 0.472; with RAF265 + Decitabine (first compound 0.3162 µM), 0.324; in the test with RAF265 + Decitabine (first compound 1 µM), 0.204; in test [1] (first compound 0.02 µM), 0.701; in test [1] (first compound 0.06325 µM), 0.645; in test [1] (first compound 0.2 µM) it was 0.598. Moreover, the relative viability in test [1] (first compound 0.6325 µM) came out at 0.596; in test [1] (first compound 2 µM), 0.546.

As to NCI-H2228, the relative viability with Doramapimod + Foretinib (first compound 0.02 µM) was 0.723; with Doramapimod + Foretinib (first compound 0.06325 µM), 0.87; in the test with Doramapimod + Foretinib (first compound 0.2 µM), 0.825; with Doramapimod + Foretinib (first compound 0.6325 µM), 0.764; in the test with Doramapimod + Foretinib (first compound 2 µM) it was 0.723; in the test with IPA-3 + Olaparib (first compound 0.2 µM), 0.662. The relative viability with IPA-3 + Olaparib (first compound 0.6325 µM) is 0.514; with IPA-3 + Olaparib (first compound 2 µM) it was 0.404; with IPA-3 + Olaparib (first compound 6.325 µM), 0.559; with IPA-3 + Olaparib (first compound 20 µM), 0.471; in test [1] (first compound 0.02 µM) it was 0.797; in test [1] (first compound 0.06325 µM), 1.04. The relative viability in test [1] (first compound 0.2 µM) came to 0.746; in test [1] (first compound 0.6325 µM), 0.686; in test [1] (first compound 2 µM), 0.66.
